Patent publication US5968526A, “T cell epitopes of the major allergens from Dermatophagoides (house dust mite)” (Immulogic Pharamaceutical Corporation, priority 1995, dated 1999)

Tests used:
[1] = system: T cell cultures reactive with Der p I from house dust mite-allergic subjects; assay: secondary T cell proliferation assay, Group I (Der p I) overlapping and candidate/unique peptides; percent of T cell reactivity; assay type: cell-based, human; conditions: patient 1733; highest S.I. ≥2.0 recorded
Excerpt: To determine whether a peptide (candidate peptide) or a combination of candidate peptides are likely to comprise a sufficient percentage of the T cell reactivity of house dust mite protein allergens, to induce T cell nonresponsiveness in a substantial percentage of a population of individuals sensitive to house dust mite allergen, an algorithm can be used. In accordance with one such algorithm, a set of overlapping peptides is produced by systematically dividing the protein allergen(s) of interest into al least two overlapping peptide regions of desired lengths (e.g., of about 12-30 amino acid residues in length, preferably not longer than about 25 amino acid residues in length with about 5-15 amino acid residues of overlap). This division into peptide regions can be arbitrary, can be made according to an algorithm, or can be wholly or partially based on regions of house dust mite Group I and/or Group II protein allergens known to comprise at least one T cell epitope. Preferably, at least 50% of the entire house dust mite protein allergen sequence and more preferably, the entire house dust mite protein allergen sequence is divided into two or more peptides. A human T cell stimulation index is determined for each of the peptides in an in vitro T cell proliferation assay as described herein for each individual tested in a population of individuals sensitive to the protein antigen. For example both WO93/08279 and WO94/24281 disclose T cell studies with overlapping peptides derived from Der p I, Der p II, Der f I and Der f II. A candidate peptide or combination of candidate peptides is selected based, at least in part, on the mean human T cell stimulation index of the candidate peptide in the set of peptides tested and the positivity index of the candidate peptide in the set of peptides tested (see, FIGS. 3 and 4). The human T cell stimulation index for the candidate peptide(s) is summed. For each individual, the human T cell stimulation index for the candidate peptide(s) is divided by the sum of the human T cells stimulation indices of the remaining peptides in the set of peptides tested to determine a percent of T cell reactivity as shown below:
Alternatively, the presence of T cell epitopes in the candidate peptide dependent on amino acids residues in an overlapping peptide located at either the N-terminus or C-terminus of the candidate peptide in the amino acid sequence of the protein antigen, but which epitopes are not present in the candidate peptide can be considered in calculating the percent of T cell reactivity in the candidate peptide by use of the following formula: [formula]
In this formula, "NT flanking peptide" refers to a peptide which comprises amino acid residues which overlap with amino acid residues located at the N-terminus of the candidate peptide in the amino acid sequence of the protein antigen from which the peptide is derived; "CT flanking peptide" refers to a peptide which comprises amino acid residues which overlap with amino acid residues located a the C-terminus of the candidate peptide in the amino acid sequence of the protein antigen from which the peptide is derived. In this calculation stimulation indices for the candidate peptide, the N-terminal flanking peptide and the C-terminal flanking peptide are added and divided by the sum total of the stimulation indices for the entire set of overlapping peptides obtain a percent of T cell reactivity for the candidate peptide. If a combination of two or more candidate peptides is selected each of which contains amino acid residues which overlap, this calculation cannot be used to determine a percent of T cell reactivity for each candidate peptide separately. However, a total percent of T cell reactivity for the combination of candidate peptides can be obtained. In this situation, the stimulation indices for all of the candidate peptides which overlap is included in the calculation. […]

[2] = system: PBMC from mite-allergic patient; assay: primary T cell (PBMC) proliferation, mite-allergic patient, tritiated thymidine; assay type: cell-based, human; conditions: medium 1071 ± 30
Method in brief: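 Ficoll-purified PBMC (5×10^4/well, triplicate) from one mite-allergic donor cultured 7 days at 37 °C with graded concentrations of purified Der p I, Der p II or their peptides in RPMI-1640 plus 5% human AB serum. 1 μCi ^3H-thymidine added for 16 h; CPM counted, stimulation index = antigen CPM/medium-only CPM.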

[3] = system: T cell lines primed in vitro to Der p I; assay: secondary proliferation of Der p I-primed T cell lines (Examples V, VII, XI); assay type: cell-based, human; conditions: overlapping Der p I peptides; 33 positive experiments
Method in brief: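 PBMC were primed with native or recombinant Der p I (10 or 20 μg/ml) for 7 days, then expanded with IL-2 and IL-4. Resting T cells (2×10^4) were cultured 3 days with irradiated autologous EBV-B cells or PBMC and titrated protein or peptides, then pulsed 16 h with 1 μCi ³H-thymidine. S.I. was peak-response CPM over medium-only CPM, with S.I. ≥2.0 scored positive.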

[4] = system: T cell lines primed in vitro to Der f I; assay: secondary proliferation of Der f I-primed T cell lines (Examples VI, VII, XI); assay type: cell-based, human; conditions: Der f I primed; 8 positive experiments; FIG. 8
Method in brief: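 PBMC from house dust mite-allergic patients were primed in vitro with recombinant or affinity-purified Der f I at 20 μg/ml (or 10 μg/ml), then rechallenged with Der f I peptides. Antigen-presenting cells were x-irradiated autologous PBMC (3500 Rads) or EBV-transformed B cells (25,000 Rads). Read-out was T cell proliferation.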

[5] = system: human IgE; assay: direct binding ELISA of IgE to mite allergen proteins and peptides; conditions: data not shown
Description: The coating antigens were removed and the wells are blocked with 0.5% gelatin in PBS, 300 μl/well for 2 hours at room temperature. Pooled human plasma (a mix of plasma samples from 20 patients that were skin test positive for commerical mite extract) was serially diluted with PBS-Tween 20 (PBS with 0.05% nonionic detergent Tween-20 Sigma, St. Louis, Mo.) and 100 μl/well a.backslash.was added and incubated overnight at 4° C. (plasma dilutions were tested in duplicate). The second antibody (biotinylated goat anti-Human IgE, 1:1000, Kirkegaard & Perry Laboratories Inc, Gaithersburg, Md.), was added at 100 μl/well for one hour at room temperature. This solution was removed and streptavidin-HRPO, 1:10000, (Southern Biotechnology Associates, Inc., Birmingham, Ala.) was then added at 100 μl/well for one hour at room temperature (all wells are washed three times with PBS-Tween between each incubation step). TMB Membrane Peroxidase Substrate system (Kirkegaard & Perry Laboratories) was freshly miced, and added at […]. The color was allowed to develop for 2-5 minutes. The reaction was stopped by the addition of […] of 1M phosphoric acid. Plates were read on a Microplate IL310 Autoreader (Biotech Instruments, Winooski, Vt.) with a 450 nm filter. The absorbance levels of duplicate wells were averaged. The order of coating antigens listed vertically in these figure legends corresponds in orDer from left to right to the coating antigens listed for each histogram.
The antigen preparation that was used as a positive control was a mixture of the four major biochemically purified mite allergens (term PMA for Purified Mite Allergen); Der f I, Der f II, Der p I and Der p II. The stock was generated at a concentration of 100 μgs of each protein per millimeter or 400 μgs total protein/ml. This preparation was used on each coated ELISA plate.

[6] = system: mast cells or basophils; assay: histamine release; assay type: cell-based, human; conditions: data not shown
Description: To determine whether a peptide which binds IgE results in the release of mediators, a histamine release assay can be performed using standard reagents and protocols obtained for example, from Amac, Inc. (Westbrook, Me.). Briefly, a buffered solution of a peptide to be tested is combined with an equal volume of whole heparinized blood from an allergic subject. After mixing and incubation, the cells are pelleted and the supernatants are processed and analyzed using a radioimmunoassay to determine the amount of histamine released.

[7] = pH-solubility profile; assay type: physicochemical; conditions: at a pH in the range pH 6 to pH 8
Description: (§1) 50 mM sodium phosphate stock solutions:
(§2) Stock solution A: 0.66 g […] of monobasic sodium phosphate monohydrate U.S.P. and 50 mg EDTA disodium dihydrate, U.S.P. were dissolved in 100 mL of WFI. The solution was filtered through a 0.2 micron filter
(§3) Stock solution B: 0.71 g […] of dibasic sodium phosphate U.S.P. were disolved in 100 ml WFI. The solution was filtered through a 0.2 micron filter.
(§4) 2. Initial peptide dispersions
(§5) Dispersion A: 3.0 mg of each candidate peptide,DPI-21.2 (SEQ. ID. NO. 28), DFI-22.2 (SEQ. ID. NO. 93), DFI-23.31(SEQ. ID. NO. 165), DFI-26.6 (SEQ. ID. NO. 168), DPII-20.9 (SEQ. ID. NO. 169), DPII-22.14 (SEQ. ID. NO. 180) and DPII-25.15 (SEQ. ID. NO. 188), was weighed out separately and placed in separate 1.5 mL eppendoff vials with 600 μL of stock solution A. The composition was agitated for 1 seconds to mix well.
as §5, with “Dispersion B:” for “Dispersion A:”, “each peptide, DPI-21.2” for “each candidate peptide,DPI-21.2”, “solution B.” for “solution A.”, “The mixture” for “The composition”, “for 5” for “for 1”
(§6) Dispersions A and B were sonicated for 2 minutes for good homogeneity. A small volume was pipetted from each dispersion into a labeled eppendoff vial according to the following volume ratio:
(§7) The resultant solutions/suspensions were stored in the dark at about 22° C.±2 for 24 hours without agitation. The solutions were filtered and filtrates were analyzed for pH and peptide concentration.
(§8) The concentration of filtered peptide solutions was determined by HPLC analysis. In this experiment, the solubility of peptide at each pH is defined as the amount of peptide remaining in solution after filtration through a membrane filter having a 0.2 micrometer pore size. The extent of degradation of peptides was estimated by calculating the percent of total degradant peak area over the total peak area.
The pH values with respect to the solubility values was plotted and are shown in FIG. 37 for each respective peptide. As shown in the solubility curve for each peptide as represented in FIG. 37, peptides DPI-21.2 (SEQ. ID. NO. 28), DFI-22.2 (SEQ. ID. NO. 93), DFI-23.31 (SEQ. ID. NO. 165), DFI-26.6 (SEQ. ID. NO. 168), DPII-20.9 (SEQ. ID. NO. 169), DPII-22.14 (SEQ. ID. NO. 180) and DPII-25.15 (SEQ. ID. NO. 188) are each soluble at greater than 3 mg/ml at a pH in the pH range of pH 6 to pH 8.

[8] = pH-stability profile / solution stability (HPLC); assay type: physicochemical; conditions: pH 6 to pH 8
Description: as §1, §2, §3, §4, §5
as §5, with “Dispersion B:” for “Dispersion A:”, “each peptide, DPI-21.2” for “each candidate peptide,DPI-21.2”, “solution B.” for “solution A.”, “The mixture” for “The composition”, “for 5” for “for 1”
as §6, §7, §8
The pH-stability profiles for each peptide DPI-21.2 (SEQ. ID. NO. 28), DFI-22.2 (SEQ. ID. NO. 93), DFI-23.31(SEQ. ID. NO. 165), DFI-26.6 (SEQ. ID. NO. 168), DPII-20.9 (SEQ. ID. NO. 169), DPII-22.14 (SEQ. ID. NO. 180) and DPII-25.15 (SEQ. ID. NO. 188) in equal concentration combination at 3, 2, and 1 mg/ml per peptide and prepared in duplicate as described above with one set stored at about 5° C. for 24 hours and one set stored at about 22° C.±2 for 24 hours, were calculated and tabulated as a function of the percentage of total of degradant peak area (FIG. 38).

## DP I-10: Der p I peptide (QGVDYWIVRNSWDTNWGDNGYGYF)
[1]
  T cell stimulation index (S.I.): 0
[2]; 10 μg/ml
  CPM ± S.D.: 1936 ± 50 CPM
[2]; 30 μg/ml
  CPM ± S.D.: 3042 ± 89 CPM
[2]; 100 μg/ml
  CPM ± S.D.: 2644 ± 63 CPM
[3]
  T cell reactivity: significant regions of T cell reactivity

## DP I-14: Der p I peptide (QSCRRPNAQRFGISNYCQI)
[1]
  T cell stimulation index (S.I.): 2.3
[4]
  T cell response to Der p I peptides: respond significantly

## DP I-15: Der p I peptide (RFGISNYCQIYPPNANKIREAL)
[1]
  T cell stimulation index (S.I.): 2.8
[4]
  T cell response to Der p I peptides: respond significantly

## DP II-25.15: modified Der p II peptide; unique peptide (DEETVKVMGDDGVLACAIATHAKIRDEE)
[5]
  IgE reactivity, candidate peptides: negative
[6]
  histamine release: negative
[7]
  solubility: greater than 3 mg/ml
[8]
  stability (in words): acceptable solution stability
